Test results published in PMC6488552, “Pharmacokinetic and Pharmacodynamic Properties of a Micro-Dose Nasal Spray Formulation of Desmopressin (AV002) in Healthy Water-Loaded Subjects” (Pharmaceutical Research, 2019).

How the values were obtained:
[1] = in vivo, cited from earlier work
clinical = settings: human, in vivo
Procedure: Each subject was dosed 4 times over 1 week with dosing occurring every other day. Doses of AV002 were administered at 0.5, 1.0, and 2.0 μg intranasally.
On Days 1, 3 and 5, subjects were dosed intranasally with escalating doses of AV002 nasal spray. On Day 7, 6 subjects were given a single SC bolus injection of desmopressin. Pharmacodynamic and pharmacokinetic metrics were evaluated at each dose level.
Plasma samples were analyzed using a validated radioimmunoassay assay (Celerion Switzerland AG) for desmopressin with a lower limit of quantification (LLOQ) of 2.5 pg/mL and upper limit of quantitation of 160 pg/mL. A 1.25 pg/mL calibration standard was included in the assay runs and concentrations between 1.25 and 2.5 pg/mL were reported out even though they were below the nominal LLOQ.
Pharmacokinetic variables were generally analyzed using model-independent methods. A single compartment model with first order absorption was used to qualitatively assess the impact of probable pharmacokinetic behavior of desmopressin when concentrations declined below the assay lower limit of quantification.
Pharmacokinetic calculations were performed using built in functions in the Excel 2003 component of Microsoft Office 2003 (Microsoft, Redmond, WA). The correctness of the calculation techniques was confirmed by comparison to output from WinNonlin 4.0.1 (Pharsight Corporation, Sunnyvale, CA). Summary statistics, graphs and figures were generated using built in functions and features of Excel 2003.
Pharmacokinetic samples were collected at pre-dose and 0.083, 0.167, 0.25, 0.50, 0.75, 1.05, 1.50, 2.05, 3.05, 4.05, and 6.05 h post dose each dosing day.

**Q.** For `NC(=O)CC[C@@H]1NC(=O)[C@H](Cc2ccccc2)NC(=O)[C@H](Cc2ccc(O)cc2)NC(=O)CCSSC[C@@H](C(=O)N2CCC[C@H]2C(=O)N[C@H](CCCN=C(N)N)C(=O)NCC(N)=O)NC(=O)[C@H](CC(N)=O)NC1=O` [Desmopressin, desmopressin], which intranasal bioavailability ([1]; human) is on record?
**A.** 3.4%

**Q.** What about the “relative bioavailability of intranasal administration, of SC injection” value [1] of the same compound?
**A.** approximately 2%

**Q.** What about the half-life (clinical) of the same compound?
**A.** 90 min

**Q.** And the “mean Tmax” value (clinical; sc)?
**A.** 53 min

**Q.** And the CL/F (clinical; sc, 0.12 ug)?
**A.** 227 mL/min

**Q.** What about the AUC(0-inf) (clinical; sc, 0.12 ug, SD) of the same compound?
**A.** 0.0102 ± 0.0049 ng·h/mL

**Q.** And the Tmax (clinical; sc, 0.12 ug, SD)?
**A.** 53 ± 20.9 min
